Assay results as given in patent US8563545B2, “Compound useful for the treatment of degenerative and inflammatory diseases” (Galapagos NV, priority 2009, dated 2013).
Where two headings read alike, the source gives them in different places. Values belong to the compound of their own block, whether it stands above or below them.

What was measured:
rat CIA model = assay: Rat collagen induced arthritis (CIA) model; assay type: in vivo; parameters: key to Clinical Assessment End point score / Clinical Assessment AUC Score / Paw swelling / Larsen' Score: a “*” indicates that there was a statistically significant improvement in the score, p 0.05 vs. untreated control
Description: Completed Freund's adjuvant (CFA) and incomplete Freund's adjuvant (IFA) were purchased from Difco. Bovine collagen type II (CII), lipopolysaccharide (LPS), and Enbrel was obtained from Chondrex (Isle d'Abeau, France); Sigma (P4252, L′Isle d'Abeau, France), Whyett (25 mg injectable syringe, France) Acros Organics (Palo Alto, Calif.), respectively. All other reagents used were of reagent grade and all solvents were of analytical grade.
Dark Agouti rats (male, 7-8 weeks old) were obtained from Harlan Laboratories (Maison-Alfort, France). Rats were kept on a 12 hr light/dark cycle (0700-1900). Temperature was maintained at 22° C., and food and water were provided ad libitum.
One day before the experiment, CII solution (2 mg/mL) was prepared with 0.05 M acetic acid and stored at 4° C. Just before the immunization, equal volumes of adjuvant (IFA) and CII were mixed by a homogenizer in a pre-cooled glass bottle in an ice water bath. Extra adjuvant and prolonged homogenization may be required if an emulsion is not formed. 0.2 mL of the emulsion was injected intradermally at the base of the tail of each rat on day 1, a second booster intradermal injection (CII solution at 2 mg/mL in CFA 0.1 mL saline) was performed on day 9. This immunization method was modified from published methods (Sims et al, 2004; Jou et al., 2005).
The therapeutic effects of the compounds were tested in the rat CIA model. Rats were randomly divided into equal groups and each group contained 10 rats. All rats were immunized on day 1 and boosted on day 9. Therapeutic dosing lasted from day 16 to day 30. The negative control group was treated with vehicle (MC 0.5%) and the positive control group with Enbrel (10 mg/kg, 3× week, s.c.). A compound of interest was typically tested at 3 doses, e.g. 3, 10, 30 mg/kg, p.o.
Arthritis is scored according to the method of Khachigian 2006, Lin et al 2007 and Nishida et al. 2004). The swelling of each of the four paws is ranked with the arthritic score as follows: 0-no symptoms; 1-mild, but definite redness and swelling of one type of joint such as the ankle or wrist, or apparent redness and swelling limited to individual digits, regardless of the number of affected digits; 2-moderate redness and swelling of two or more types of joints; 3-severe redness and swelling of the entire paw including digits; 4-maximally inflamed limb with involvement of multiple joints (maximum cumulative clinical arthritis score 16 per animal) (Nishida et al., 2004).
The area under the curve (AUC) from day 1 to day 14 was calculated for each individual rat. The AUC of each animal was divided by the average AUC obtained for the vehicle in the study from which the data on that animal was obtained and multiplied by 100 (i.e. the AUC was expressed as a percentage of the average vehicle AUC per study).
The clinical score difference for each animal was divided by the average clinical score difference obtained for the vehicle in the study from which the data on that animal was obtained and multiplied by 100 (i.e. the difference was expressed as a percentage of the average clinical score difference for the vehicle per study).
X-ray photos were taken of the hind paws of each individual animal. […]

Aqueous solubility = assay type: physicochemical; conditions: kinetic from dmso stock
Description: Starting from a 10 mM stock in DMSO, a serial dilution of the compound was prepared in DMSO. The dilution series was transferred to a 96 NUNC Maxisorb plate F-bottom (Cat no. 442404) and 0.2M phosphate buffer pH7.4 or 0.1M citrate buffer pH 3.0 at room temperature was added.
The final concentration ranged from 200 μM to 2.5 μM in 5 equal dilution steps. […] 200 μM Pyrene was added to the corner points of each 96 well plate and served as a reference point for calibration of Z-axis on the microscope.
The assay plates were sealed and incubated for 1 hr at 37° C. while shaking at 230 rpm. The plates were then scanned under a white light microscope, yielding individual pictures of the precipitate per concentration. The precipitate was analyzed and converted into a number which was plotted onto a graph. The first concentration at which the compound appears completely dissolved is the concentration is reported below, however the true concentration lies somewhere between this concentration and one dilution step higher.
Solubility values are reported in μg/mL

JAK3 = JAK3 (Homo sapiens (Human), UniProt P52333); assay: JAK3 inhibition assay; assay type: biochemical
Description: (§1) Plates were washed 6 times with 300 μL per well of a 75 mM phosphoric acid solution and the bottom of the plates was sealed. 40 μL/well of Microscint-20 was added, the top of the plates was sealed and readout was performed using the Topcount (Perkin Elmer). Kinase activity was calculated by subtracting counts per minute (cpm) obtained in the presence of a positive control inhibitor (10 μM staurosporine) from cpm obtained in the presence of vehicle. The ability of a test compound to inhibit this activity was determined as:
(§2) Percentage inhibition=((cpm determined for sample with test compound present−cpm determined for sample with positive control inhibitor)divided by(cpm determined in the presence of vehicle−cpm determined for sample with positive control inhibitor))*100.
Dose dilution series were prepared for the compounds enabling the testing of dose-response effects in the JAK3 assay and the calculation of the IC50 for each compound.

TYK2 = TYK2 (Homo sapiens (Human), UniProt P29597); assay: TYK2 inhibition assay; assay type: biochemical
Description: as §1, with “After 90 min at 30° C., reactions were stopped by adding 25 μL/well of 150 mM phosphoric acid. […] Plates” for “Plates”
as §2
Dose dilution series were prepared for the compounds enabling the testing of dose-response effects in the TYK2 assay and the calculation of the IC50 for each compound.

JAK1 = JAK1 (Homo sapiens (Human), UniProt P23458); assay: JAK1 inhibition assay; assay type: biochemical
Description: as §1, §2
Dose dilution series were prepared for the compounds enabling the testing of dose-response effects in the JAK1 assay and the calculation of the IC50 for each compound.

[1] = 0.1 mg/kg/day, normalized score
[2] = 0.3 mg/kg/day, normalized score
[3] = 0.2 M phosphate buffer pH 7.4, 37 °C, pH 7.4, aqueous buffer, 0.2M phosphate buffer pH7.4, read-out: Aqueous solubility pH 7.4
[4] = 37 °C, aqueous buffer, 0.1M citrate buffer pH 3.0, read-out: Aqueous solubility pH 3.0

Sequence of JAK3 (P52333 781-1124): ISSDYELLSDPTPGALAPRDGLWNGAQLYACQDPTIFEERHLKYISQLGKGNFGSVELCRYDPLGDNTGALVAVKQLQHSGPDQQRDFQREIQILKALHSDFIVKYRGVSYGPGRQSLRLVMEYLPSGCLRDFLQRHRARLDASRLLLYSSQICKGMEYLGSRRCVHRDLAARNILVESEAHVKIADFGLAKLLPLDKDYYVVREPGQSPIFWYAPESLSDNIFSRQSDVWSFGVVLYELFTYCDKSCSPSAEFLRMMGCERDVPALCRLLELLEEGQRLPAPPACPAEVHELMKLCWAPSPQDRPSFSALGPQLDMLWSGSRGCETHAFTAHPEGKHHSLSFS
Sequence of JAK1 (P23458 850-1154): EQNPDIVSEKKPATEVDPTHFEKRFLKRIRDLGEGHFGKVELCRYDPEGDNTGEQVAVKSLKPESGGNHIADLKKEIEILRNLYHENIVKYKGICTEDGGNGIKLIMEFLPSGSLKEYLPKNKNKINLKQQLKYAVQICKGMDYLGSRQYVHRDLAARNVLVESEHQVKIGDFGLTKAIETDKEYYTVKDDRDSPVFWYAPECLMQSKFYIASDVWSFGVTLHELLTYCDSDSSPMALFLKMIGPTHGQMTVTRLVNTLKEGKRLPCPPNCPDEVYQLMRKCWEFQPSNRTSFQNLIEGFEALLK
Sequence of TYK2 (P29597 871-1187): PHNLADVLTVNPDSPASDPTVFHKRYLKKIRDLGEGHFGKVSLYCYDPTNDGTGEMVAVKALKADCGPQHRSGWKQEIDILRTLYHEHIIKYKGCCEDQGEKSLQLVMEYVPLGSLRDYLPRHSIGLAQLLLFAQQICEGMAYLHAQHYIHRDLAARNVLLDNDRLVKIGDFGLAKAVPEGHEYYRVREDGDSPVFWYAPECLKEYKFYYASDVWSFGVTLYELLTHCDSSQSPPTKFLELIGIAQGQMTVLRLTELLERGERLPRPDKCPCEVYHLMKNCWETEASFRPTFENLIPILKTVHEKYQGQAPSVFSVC

solubility at 1 h (Aqueous solubility; [3]): > 85 µg/mL
solubility at 1 h (Aqueous solubility; [4]): > 85 µg/mL
SMILES: O=C(Nc1nc2cccc(-c3ccc(CN4CCS(=O)(=O)CC4)cc3)n2n1)C1CC1 [Compound 1, Cyclopropanecarboxylic acid {5-[4-(1,1-dioxo-1-thiomorpholin-4-ylmethyl)-phenyl]-[1,2,4]triazolo [1,5-a]pyridin-2-yl}-amide]
improvement in efficacy over Compound 2 when the oral doses are compared (rat CIA model): 100 fold
Clinical Assessment AUC Score (rat CIA model; [1]): *
Clinical Assessment End point score (rat CIA model; [1]): *
Paw swelling (rat CIA model; 0.3 mg/kg/day): *
Clinical Assessment AUC Score (rat CIA model; [2]): *
Clinical Assessment End point score (rat CIA model; [2]): *
Paw swelling (rat CIA model; 1 mg/kg/day): *
Clinical Assessment AUC Score (rat CIA model; 1 mg/kg/day, normalized score): *
Clinical Assessment End point score (rat CIA model; 1 mg/kg/day, normalized score): *
Larsen' Score (rat CIA model; 3 mg/kg/day): *
Paw swelling (rat CIA model; 3 mg/kg/day): *
Clinical Assessment AUC Score (rat CIA model; 3 mg/kg/day, normalized score): *
Clinical Assessment End point score (rat CIA model; 3 mg/kg/day, normalized score): *
normalized clinical score values (AUC or difference from day 1 to day 14) (rat CIA model; dose of 0.1 mg/kg): statistically significant improvements
paw swelling readout (rat CIA model; dose of 0.3 mg/kg): statistically significant increase
Larsen score (rat CIA model; dose of 3 mg/kg): statistically significant increase

IC50 (JAK3): 2840 nM
IC50 (TYK2): 2100 nM
solubility at 1 h (Aqueous solubility; [3]): > 38 µg/mL
solubility at 1 h (Aqueous solubility; [4]): > 38 µg/mL
SMILES: O=C(Nc1nc2cccc(-c3ccc(CN4CCOCC4)cc3)n2n1)C1CC1 [Compound 2, N-(5-(4-(morpholinomethyl)phenyl)-[1,2,4]triazolo[1,5-a]pyridin-2-yl)cyclopropanecarboxamide]
Clinical Assessment End point score (rat CIA model; 10 mg/kg/day): *
Clinical Assessment End point score (rat CIA model; 30 mg/kg/day): *
Larsen' Score (rat CIA model; 30 mg/kg/day): *
Paw swelling (rat CIA model; 30 mg/kg/day): *
normalized clinical score values (rat CIA model; dose of 10 mg/kg): statistically significant improvements
Larsen score (rat CIA model; dose of 30 mg/kg): statistically significant increase
paw swelling readout (rat CIA model; dose of 30 mg/kg): statistically significant increase

IC50 (JAK1): 18.2 nM
solubility at 1 h (Aqueous solubility; [3]): > 87.9 µg/mL
solubility at 1 h (Aqueous solubility; [4]): > 87.9 µg/mL
SMILES: O=C(Nc1nc2cccc(-c3ccc(C(=O)N4CCS(=O)(=O)CC4)cc3)n2n1)C1CC1 [Compound 10, Cyclopropanecarboxylic acid {5-[4-(1,1-dioxo-1-thiomorpholine-4-carbonyl)-phenyl]-[1,2,4]triazolo [1,5-a]pyridin-2-yl}-amide]

IC50 (JAK1): 7.69 nM
IC50 (JAK3): 195 nM
IC50 (TYK2): 126 nM
SMILES: O=C(Nc1nc2cccc(-c3ccc(CN4CCC(F)(F)CC4)cc3)n2n1)C1CC1 [Compound 11, Cyclopropanecarboxylic acid {5-[4-(4,4-difluoro-piperidin-1-ylmethyl)-phenyl]-[1,2,4]triazolo [1,5-a]pyridin-2-yl}-amide]
